Common to all, as to assay: growth of human tumour cells (NCI), 48 h
The subject of assay [1] is EKVX NSCLC.
Assay [2] relates to UO-31 renal.
Assay [3] deals with RPMI-8226 leukemia.
Assay [4] has as its system HS 578T breast.
For assay [5], the system named is NCI-H226 lung.
The test system of assay [6] is LOX IMVI melanoma.
The test system of assay [7] is CAKI-1 renal.
In assay [8] the test system is SR leukemia.

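Test compounds were applied to cells in 96-well plates for 48 hours at 5 doses. GI50 = concentration required for 50% inhibition of growth. Definition used: TGI = concentration required for complete inhibition of growth.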

As for `O=C(O)c1n[nH]nc1Cl`, the TGI in assay [1], in assay [2], in assay [3], in assay [4], in assay [5] and in assay [6] was over 100 µM each time.

Regarding `CC(=O)n1nc(-c2ccccc2)n(/N=C/c2ccc([N+](=O)[O-])cc2)c1=O`, the TGI in assay [1], in assay [2], in assay [3], in assay [7], in assay [5] and in assay [6] was over 100 µM each time. In addition, the TGI in assay [8] is over 100 µM.

Consider `COc1ccc(N=C2SC(=N/N=c3\sc4ccccc4n3C)SC2=Nc2ccc(OC)cc2)cc1`, for which the TGI in assay [1], in assay [2], in assay [3], in assay [7], in assay [4] and in assay [5] was over 100 µM in each case. In assay [8], this compound displayed a TGI of over 100 µM.

On to `CS(=O)(=O)Nc1ccc(N2Cc3cnc4ccc5[nH]ccc2c5c34)cc1`, for which the TGI in assay [1] is over 100 µM; in assay [2], over 100 µM; in assay [3], 48.1 µM; in assay [7], over 100 µM; in assay [4], over 100 µM; in assay [5] it was 42.2 µM. The TGI in assay [6] amounted to 28.2 µM.

Regarding `COc1ccc(C2CC(=O)CC(c3ccc(OC)cc3)C23C(=O)NC(=O)NC3=O)cc1` (stereo not given), the TGI in assay [1] is over 100 µM; in assay [2], over 100 µM; in assay [7] it was 65.3 µM; in assay [5] it was over 100 µM; in assay [6] it was over 100 µM; in assay [8] it was over 100 µM.

For `Cc1cc2nc3c(C#N)c(-c4ccccc4)cc(Nc4ccc(Cl)cc4)n3c2cc1C`, the TGI in assay [1], in assay [2], in assay [3], in assay [7], in assay [5] and in assay [6] was over 100 µM throughout.

Turning to `CN(c1ccc(Cl)cc1)S(=O)(=O)c1ccc([N+](=O)[O-])cc1`, the TGI in assay [1], in assay [2], in assay [3], in assay [7], in assay [4] and in assay [5] was over 100 µM in each case. In assay [6], this compound came in with a TGI of over 100 µM.

With `COc1ccc(C2CC(c3cccc(Nc4ccncc4)c3)=NN2c2cc(Cl)cc(Cl)c2)cc1` (stereo not given), the GI50 in assay [1] was 1.89 µM; in assay [2], 1.36 µM; in assay [7] it was 1.62 µM; in assay [5], 10.7 µM; in assay [6], 1.62 µM; in assay [8] it was 1.53 µM. Also, the TGI in assay [1] was found to be 4.68 µM; in assay [2], 2.74 µM; in assay [7], 3.1 µM; in assay [5], 30.7 µM; in assay [6], 2.97 µM; in assay [8] it was 4.34 µM.

For `CCSc1n/c(=C\c2ccco2)c2nnnn12`, the TGI in assay [1], in assay [2], in assay [3], in assay [7], in assay [4] and in assay [5] was over 100 µM each time. For the same compound, in assay [6], the TGI is over 100 µM.

`O=[N+]([O-])c1ccc(/C=N/n2c(CO)nc3ccccc32)o1`: the TGI is 23.6 µM in assay [1]; 22.9 µM in assay [2]; 19.6 µM in assay [3]; 24.8 µM in assay [7]; 35.6 µM in assay [4]; 39.5 µM in assay [5]. Besides, the TGI in assay [6] was determined as 15.9 µM.

Consider `CCC1(CC)SCc2nc3ccccc3n21`, for which the TGI in assay [1] was 73.7 µM; in assay [2], over 100 µM; in assay [3], 65.7 µM; in assay [7] it was 95.7 µM; in assay [4] it was 82.9 µM; in assay [5], 88.8 µM. The same compound returned a TGI in assay [6] of over 100 µM.

For the compound `CC1CC(N)=Nc2ccccc2N1` (stereo not given), the TGI in assay [1], in assay [2], in assay [3], in assay [7], in assay [4] and in assay [5] was over 100 µM in each case. Further, the TGI in assay [6] was over 100 µM.

On to `NC(Cc1cccc([N+](=O)[O-])c1)C(=O)O` (stereo not given), for which the TGI in assay [1], in assay [2], in assay [3], in assay [7], in assay [4] and in assay [5] was over 100 µM throughout. For the same compound, the TGI in assay [6] was over 100 µM.

For the compound `c1ccc2sc(C3(N4CCCC4)CCCCCC3)cc2c1`, the TGI in assay [1] was determined as 33 µM; in assay [2] it was 26 µM; in assay [7] it was 61.2 µM; in assay [5], 40.3 µM; in assay [6], 33.2 µM; in assay [8] it was 44.1 µM.

As for `CCc1nc(N)nc(N)c1-c1ccc(Cl)c(Cl)c1`, the TGI in assay [1], in assay [2], in assay [3], in assay [7], in assay [4] and in assay [6] was over 100 µM each time. Also, the TGI in assay [8] was over 100 µM.

Take `S=C(NCc1ccccc1)c1nc[nH]c1C(=S)NCc1ccccc1`: the TGI in assay [1] is 17 µM; in assay [3], 35.6 µM; in assay [7], 18.7 µM; in assay [5], 8.1 µM; in assay [6], 17.1 µM.

Regarding `CN1C(=O)N/C(=C\c2ccc(S(=O)(=O)NN)cc2)C1=O`, the TGI in assay [1], in assay [2], in assay [3], in assay [7], in assay [4] and in assay [5] was over 100 µM throughout. Further, the TGI in assay [6] was over 100 µM.

Regarding `C=CCNC1=C2C[C@@H](C)C[C@@H](OC)[C@H](OC(=O)CCCCN)[C@H](C)/C=C(\C)[C@@H](OC(N)=O)[C@H](OC)/C=C\C=C(/C)C(=O)NC(=CC1=O)C2=O`, the TGI in assay [1] worked out at 26.9 µM; in assay [2] it was 34.2 µM; in assay [3], 35.1 µM; in assay [7], 33.2 µM; in assay [4], 58.4 µM; in assay [6], 27.5 µM. Moreover, the TGI in assay [8] was over 100 µM.

Source of the values: PubChem BioAssay (NCI).
